{"source": "ChEMBL document CHEMBL5325437", "about": "“Shifting the selectivity of pyrido[2,3-d]pyrimidin-7(8H)-one inhibitors towards the salt-inducible kinase (SIK) subfamily” (Eur J Med Chem, 2023)", "key": {"Ephrin type-A receptor 4 [1]": {"target": "T1, Ephrin type-A receptor 4 (Homo sapiens, UniProt P54764)", "T1 sequence (P54764 whole entry)": "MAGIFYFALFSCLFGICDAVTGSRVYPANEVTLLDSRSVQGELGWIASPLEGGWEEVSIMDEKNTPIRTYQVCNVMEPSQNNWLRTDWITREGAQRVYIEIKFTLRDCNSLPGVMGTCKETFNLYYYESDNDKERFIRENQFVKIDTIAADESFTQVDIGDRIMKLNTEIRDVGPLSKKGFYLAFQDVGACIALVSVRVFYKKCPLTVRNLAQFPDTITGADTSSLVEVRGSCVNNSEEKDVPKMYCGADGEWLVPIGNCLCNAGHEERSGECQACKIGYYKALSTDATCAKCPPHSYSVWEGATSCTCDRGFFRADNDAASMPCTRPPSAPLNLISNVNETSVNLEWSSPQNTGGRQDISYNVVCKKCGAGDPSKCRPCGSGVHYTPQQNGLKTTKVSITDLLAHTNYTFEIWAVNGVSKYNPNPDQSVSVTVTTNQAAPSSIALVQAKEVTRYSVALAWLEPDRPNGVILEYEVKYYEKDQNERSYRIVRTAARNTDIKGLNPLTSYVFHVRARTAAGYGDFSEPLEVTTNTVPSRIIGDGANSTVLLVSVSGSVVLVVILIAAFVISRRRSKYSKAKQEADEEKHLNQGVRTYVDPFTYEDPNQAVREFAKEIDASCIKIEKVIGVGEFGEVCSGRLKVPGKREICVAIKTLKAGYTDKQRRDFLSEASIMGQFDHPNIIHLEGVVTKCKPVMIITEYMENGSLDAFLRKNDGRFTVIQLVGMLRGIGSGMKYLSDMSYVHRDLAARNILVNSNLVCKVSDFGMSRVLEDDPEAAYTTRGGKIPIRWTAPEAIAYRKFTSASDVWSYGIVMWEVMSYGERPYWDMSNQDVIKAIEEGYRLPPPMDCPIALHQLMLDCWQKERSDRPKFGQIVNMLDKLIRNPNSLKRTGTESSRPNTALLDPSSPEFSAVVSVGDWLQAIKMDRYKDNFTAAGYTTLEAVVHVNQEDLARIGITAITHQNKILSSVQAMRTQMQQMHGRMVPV", "test": "Binding affinity to recombinant EPHA4 (unknown origin) assessed as stabilization by measuring change in melting temperature at 10 uM by SYPRO orange dye based differential scanning fluorimetry assay"}, "[2]": {"target": "T2, Serine/threonine-protein kinase 4 (Homo sapiens) (UniProt Q13043)", "T2 sequence (whole entry)": "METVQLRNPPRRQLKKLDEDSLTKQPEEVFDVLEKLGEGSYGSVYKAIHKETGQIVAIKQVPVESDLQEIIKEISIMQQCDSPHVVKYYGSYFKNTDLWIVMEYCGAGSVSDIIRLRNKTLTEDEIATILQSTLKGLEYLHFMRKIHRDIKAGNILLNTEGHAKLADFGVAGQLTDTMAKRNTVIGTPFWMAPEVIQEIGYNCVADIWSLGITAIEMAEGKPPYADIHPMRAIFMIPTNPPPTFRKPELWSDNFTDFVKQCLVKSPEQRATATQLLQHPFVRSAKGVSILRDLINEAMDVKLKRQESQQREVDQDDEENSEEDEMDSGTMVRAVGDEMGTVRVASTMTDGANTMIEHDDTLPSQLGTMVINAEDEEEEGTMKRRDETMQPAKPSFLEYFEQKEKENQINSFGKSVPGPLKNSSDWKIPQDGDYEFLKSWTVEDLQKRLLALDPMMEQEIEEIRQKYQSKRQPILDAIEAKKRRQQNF", "test": "Binding affinity to recombinant MST1 (unknown origin) assessed as stabilization by measuring change in melting temperature at 10 uM by SYPRO orange dye based differential scanning fluorimetry assay"}, "[3]": {"target": "Serine/threonine-protein kinase SIK2 (Homo sapiens) (UniProt Q9H0K1)", "sequence (Q9H0K1 whole entry, looked up)": "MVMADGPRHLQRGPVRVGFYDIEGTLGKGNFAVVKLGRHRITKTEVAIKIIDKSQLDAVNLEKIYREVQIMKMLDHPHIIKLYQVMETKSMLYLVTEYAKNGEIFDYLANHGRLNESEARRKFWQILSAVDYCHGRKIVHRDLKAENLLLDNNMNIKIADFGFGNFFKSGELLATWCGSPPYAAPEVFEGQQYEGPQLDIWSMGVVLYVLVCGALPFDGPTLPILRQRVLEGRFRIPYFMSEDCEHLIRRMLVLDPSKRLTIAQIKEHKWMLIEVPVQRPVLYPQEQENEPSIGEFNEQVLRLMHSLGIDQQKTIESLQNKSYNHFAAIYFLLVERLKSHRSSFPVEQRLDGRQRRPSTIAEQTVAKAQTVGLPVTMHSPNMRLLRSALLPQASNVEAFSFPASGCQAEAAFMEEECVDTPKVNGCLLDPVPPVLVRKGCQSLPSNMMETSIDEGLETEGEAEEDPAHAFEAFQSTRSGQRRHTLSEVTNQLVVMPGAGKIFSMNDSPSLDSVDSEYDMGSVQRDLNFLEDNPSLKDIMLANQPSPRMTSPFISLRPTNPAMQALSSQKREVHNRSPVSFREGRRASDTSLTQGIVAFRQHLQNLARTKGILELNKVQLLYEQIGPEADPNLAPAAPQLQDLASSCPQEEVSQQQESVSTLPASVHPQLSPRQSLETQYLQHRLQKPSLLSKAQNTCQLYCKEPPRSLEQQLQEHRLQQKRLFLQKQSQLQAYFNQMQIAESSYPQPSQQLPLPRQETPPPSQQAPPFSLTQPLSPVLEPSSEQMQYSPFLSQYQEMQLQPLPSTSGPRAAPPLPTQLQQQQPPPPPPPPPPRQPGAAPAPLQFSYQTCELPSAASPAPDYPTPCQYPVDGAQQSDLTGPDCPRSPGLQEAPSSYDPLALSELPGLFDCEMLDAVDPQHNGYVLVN", "test": "Inhibition of recombinant human GST-tagged SIK2 assessed as downregulation of SIK2 phosphorylation at Ser358 incubated for 30 mins by Western blotting analysis"}, "SK-OV-3": {"tested_on": "SK-OV-3", "test": "Induction of cell cycle arrest in human SK-OV-3 cells assessed as accumulation of cells at G1 phase at 5 uM incubated for 24 hrs by flow cytometry (reference value: 34%)", "format": "functional"}, "Ephrin type-A receptor 4 [4]": {"target": "T1, Ephrin type-A receptor 4", "test": "Inhibition of full length NanoLuc fused EPHA4 (unknown origin) transfected in HEK293T cells using NanoBRET NanoGlo substrate incubated for 2 hrs in presence of tracer by NanoBRET assay", "format": "cell-based"}, "Ephrin type-B receptor 2": {"target": "Ephrin type-B receptor 2 (Homo sapiens, UniProt P29323)", "sequence (P29323 whole entry, the tested form may be a part)": "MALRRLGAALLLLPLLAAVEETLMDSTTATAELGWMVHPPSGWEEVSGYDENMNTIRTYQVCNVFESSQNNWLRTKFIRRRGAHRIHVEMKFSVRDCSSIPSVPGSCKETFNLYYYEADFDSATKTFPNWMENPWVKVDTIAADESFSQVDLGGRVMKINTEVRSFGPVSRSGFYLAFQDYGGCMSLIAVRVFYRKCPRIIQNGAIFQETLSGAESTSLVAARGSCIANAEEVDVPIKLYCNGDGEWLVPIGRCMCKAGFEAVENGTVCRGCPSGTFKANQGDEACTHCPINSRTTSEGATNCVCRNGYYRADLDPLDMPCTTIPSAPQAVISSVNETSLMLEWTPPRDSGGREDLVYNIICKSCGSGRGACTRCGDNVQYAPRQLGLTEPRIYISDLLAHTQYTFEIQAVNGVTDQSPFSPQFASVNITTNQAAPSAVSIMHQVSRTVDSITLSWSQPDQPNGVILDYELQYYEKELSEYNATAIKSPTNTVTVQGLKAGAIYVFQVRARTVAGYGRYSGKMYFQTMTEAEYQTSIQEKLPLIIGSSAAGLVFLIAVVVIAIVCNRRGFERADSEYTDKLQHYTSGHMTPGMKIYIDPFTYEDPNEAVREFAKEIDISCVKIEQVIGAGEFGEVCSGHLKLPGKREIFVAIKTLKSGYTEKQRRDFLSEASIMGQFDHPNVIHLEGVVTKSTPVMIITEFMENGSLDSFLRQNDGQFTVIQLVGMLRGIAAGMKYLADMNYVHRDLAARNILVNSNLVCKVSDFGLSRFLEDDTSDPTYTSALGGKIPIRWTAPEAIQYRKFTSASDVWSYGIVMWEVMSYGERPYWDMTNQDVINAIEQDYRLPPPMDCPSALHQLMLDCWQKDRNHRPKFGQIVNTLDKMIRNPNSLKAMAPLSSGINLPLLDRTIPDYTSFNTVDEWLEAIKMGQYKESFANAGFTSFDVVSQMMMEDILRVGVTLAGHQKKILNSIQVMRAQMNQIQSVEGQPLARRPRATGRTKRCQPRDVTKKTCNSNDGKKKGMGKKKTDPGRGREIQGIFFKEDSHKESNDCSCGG", "test": "Inhibition of full length NanoLuc fused EPHB2 (unknown origin) transfected in HEK293T cells using NanoBRET NanoGlo substrate incubated for 2 hrs in presence of tracer by NanoBRET assay", "format": "cell-based"}, "HCT-116 [5]": {"tested_on": "HCT-116", "test": "Cytotoxicity against human HCT-116 cells assessed as appearance of pyknosis nuclei at 1 uM incubated for 80 hrs by Hoechst-33342 staining high-content imaging analysis", "format": "toxicity, cell-based", "conditions": "hct-116, 80 h"}, "[6]": {"target": "Serine/threonine-protein kinase SIK2 (Homo sapiens) (UniProt Q9H0K1)", "test": "Inhibition of SIK2 in human SK-OV-3 cells assessed as downregulation of AKT phosphorylation at Ser473 at 5 uM incubated for 48 hrs by Western blotting analysis", "format": "cell-based"}, "HCT-116 [7]": {"tested_on": "HCT-116", "test": "Cytotoxicity against human HCT-116 cells assessed as reduction in cell count at 1 uM incubated for >60 hrs by Hoechst-33342 staining high-content imaging analysis", "format": "toxicity, cell-based", "conditions": "hct-116, 60 h"}, "[8]": {"target": "Serine/threonine-protein kinase SIK2 (Homo sapiens) (UniProt Q9H0K1)", "test": "Inhibition of recombinant human GST-tagged SIK2 assessed as downregulation of SIK2 phosphorylation at Ser358 a 5 uM incubated for 30 mins by Western blotting analysis"}, "[9]": {"target": "Serine/threonine-protein kinase PAK 1 (Homo sapiens) (UniProt Q13153)", "test": "Binding affinity to recombinant PAK1 (unknown origin) assessed as stabilization by measuring change in melting temperature at 10 uM by SYPRO orange dye based differential scanning fluorimetry assay"}, "[10]": {"target": "Cyclin-G-associated kinase (Homo sapiens) (UniProt O14976)", "test": "Binding affinity to recombinant GAK (unknown origin) assessed as stabilization by measuring change in melting temperature at 10 uM by SYPRO orange dye based differential scanning fluorimetry assay"}, "Ephrin type-A receptor 2": {"target": "Ephrin type-A receptor 2 (Homo sapiens, UniProt P29317)", "sequence (P29317 whole entry, the tested form may be a part)": "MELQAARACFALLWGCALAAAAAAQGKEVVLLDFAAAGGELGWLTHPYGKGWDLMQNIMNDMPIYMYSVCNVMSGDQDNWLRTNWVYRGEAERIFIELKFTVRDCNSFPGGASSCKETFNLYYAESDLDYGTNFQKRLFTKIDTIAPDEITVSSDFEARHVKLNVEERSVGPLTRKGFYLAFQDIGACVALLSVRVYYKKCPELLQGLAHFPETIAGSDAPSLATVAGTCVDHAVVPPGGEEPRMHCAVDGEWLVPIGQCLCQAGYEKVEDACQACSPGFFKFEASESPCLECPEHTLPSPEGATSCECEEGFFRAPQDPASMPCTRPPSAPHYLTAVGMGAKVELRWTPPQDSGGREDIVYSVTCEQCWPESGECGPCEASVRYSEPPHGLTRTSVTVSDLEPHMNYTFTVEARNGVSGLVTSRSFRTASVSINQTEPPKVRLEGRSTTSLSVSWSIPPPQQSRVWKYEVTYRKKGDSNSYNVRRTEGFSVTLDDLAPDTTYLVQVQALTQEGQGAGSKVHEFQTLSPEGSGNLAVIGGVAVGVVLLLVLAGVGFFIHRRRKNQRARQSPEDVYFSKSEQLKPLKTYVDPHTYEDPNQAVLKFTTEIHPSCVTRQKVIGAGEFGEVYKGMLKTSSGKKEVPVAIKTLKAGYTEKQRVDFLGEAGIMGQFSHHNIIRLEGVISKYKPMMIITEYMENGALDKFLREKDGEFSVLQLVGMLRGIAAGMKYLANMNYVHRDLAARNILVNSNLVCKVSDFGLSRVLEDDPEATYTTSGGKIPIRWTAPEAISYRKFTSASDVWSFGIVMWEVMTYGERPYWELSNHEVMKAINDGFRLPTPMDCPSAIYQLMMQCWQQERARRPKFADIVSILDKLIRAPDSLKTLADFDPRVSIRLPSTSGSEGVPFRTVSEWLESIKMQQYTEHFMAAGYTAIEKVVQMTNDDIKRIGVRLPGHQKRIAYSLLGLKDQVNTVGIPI", "test": "Inhibition of full length NanoLuc fused EPHA2 (unknown origin) transfected in HEK293T cells using NanoBRET NanoGlo substrate incubated for 2 hrs in presence of tracer by NanoBRET assay", "format": "cell-based"}, "[11]": {"target": "Ephrin type-B receptor 3 (Homo sapiens) (UniProt P54753)", "test": "Binding affinity to recombinant EPHB3 (unknown origin) assessed as stabilization by measuring change in melting temperature at 10 uM by SYPRO orange dye based differential scanning fluorimetry assay"}, "[12]": {"target": "Serine/threonine-protein kinase SIK2 (Homo sapiens) (UniProt Q9H0K1)", "test": "Inhibition of SIK2 in human SK-OV-3 cells assessed as upregulation of cyclin A expression level at 5 uM incubated for 48 hrs by Western blotting analysis", "format": "cell-based"}, "[13]": {"target": "Serine/threonine-protein kinase SIK2 (Homo sapiens) (UniProt Q9H0K1)", "test": "Inhibition of SIK2 in human SK-OV-3 cells assessed as upregulation of PLK expression level at 5 uM incubated for 48 hrs by Western blotting analysis", "format": "cell-based"}, "[14]": {"target": "T3, Mitogen-activated protein kinase 8 (Homo sapiens, UniProt P45983)", "T3 sequence (P45983 whole entry, the tested form may be a part)": "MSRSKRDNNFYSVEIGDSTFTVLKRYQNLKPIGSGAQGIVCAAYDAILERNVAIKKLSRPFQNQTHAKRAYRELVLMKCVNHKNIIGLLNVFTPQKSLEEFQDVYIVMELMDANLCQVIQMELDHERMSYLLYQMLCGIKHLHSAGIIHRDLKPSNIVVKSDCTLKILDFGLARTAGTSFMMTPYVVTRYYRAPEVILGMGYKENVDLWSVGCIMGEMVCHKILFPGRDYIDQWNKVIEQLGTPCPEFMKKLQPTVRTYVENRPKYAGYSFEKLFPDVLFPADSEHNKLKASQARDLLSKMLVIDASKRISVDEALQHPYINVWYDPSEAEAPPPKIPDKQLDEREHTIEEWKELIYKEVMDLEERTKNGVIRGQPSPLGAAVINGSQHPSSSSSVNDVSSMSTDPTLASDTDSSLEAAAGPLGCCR", "test": "Inhibition of full length NanoLuc fused JNK1 (unknown origin) transfected in HEK293T cells using NanoBRET NanoGlo substrate incubated for 2 hrs in presence of tracer by NanoBRET assay", "format": "cell-based"}, "[15]": {"target": "T3, Mitogen-activated protein kinase 8", "test": "Binding affinity to recombinant JNK1 (unknown origin) assessed as stabilization by measuring change in melting temperature at 10 uM by SYPRO orange dye based differential scanning fluorimetry assay"}, "[16]": {"target": "Serine/threonine-protein kinase SIK2 (Homo sapiens) (UniProt Q9H0K1)", "test": "Inhibition of SIK2 in human SK-OV-3 cells assessed as decrease in centrosome dissociation in G2 phase at 5 uM incubated for 48 hrs by immunofluorescence assay", "format": "cell-based"}, "HCT-116 [17]": {"tested_on": "HCT-116", "test": "Cytotoxicity against human HCT-116 cells assessed as appearance of pyknosis nuclei at 10 uM incubated for 80 hrs by Hoechst-33342 staining high-content imaging analysis", "format": "toxicity, cell-based", "conditions": "hct-116, 80 h"}, "[18]": {"target": "Serine/threonine-protein kinase 26 (Homo sapiens) (UniProt Q9P289)", "test": "Binding affinity to recombinant MST4 (unknown origin) assessed as stabilization by measuring change in melting temperature at 10 uM by SYPRO orange dye based differential scanning fluorimetry assay"}, "[19]": {"target": "Serine/threonine-protein kinase 24 (Homo sapiens) (UniProt Q9Y6E0)", "sequence (Q9Y6E0 whole entry, looked up)": "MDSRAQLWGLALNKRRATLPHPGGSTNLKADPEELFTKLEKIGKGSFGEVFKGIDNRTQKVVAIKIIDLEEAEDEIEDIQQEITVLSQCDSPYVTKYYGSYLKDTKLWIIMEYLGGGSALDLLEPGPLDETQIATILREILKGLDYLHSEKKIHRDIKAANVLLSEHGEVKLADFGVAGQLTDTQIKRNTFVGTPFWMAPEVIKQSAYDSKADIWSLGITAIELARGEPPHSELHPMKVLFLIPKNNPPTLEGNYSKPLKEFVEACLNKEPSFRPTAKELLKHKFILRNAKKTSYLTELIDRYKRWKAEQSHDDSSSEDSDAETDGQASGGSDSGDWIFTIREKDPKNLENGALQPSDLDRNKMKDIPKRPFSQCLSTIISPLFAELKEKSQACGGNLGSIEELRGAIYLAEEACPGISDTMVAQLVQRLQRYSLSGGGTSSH", "test": "Binding affinity to recombinant MST3 (unknown origin) assessed as stabilization by measuring change in melting temperature at 10 uM by SYPRO orange dye based differential scanning fluorimetry assay"}, "[20]": {"target": "Tyrosine-protein kinase ABL1 (Homo sapiens, UniProt P00519)", "test": "Binding affinity to recombinant ABL1 (unknown origin) assessed as stabilization by measuring change in melting temperature at 10 uM by SYPRO orange dye based differential scanning fluorimetry assay"}, "[21]": {"test": "Binding affinity to recombinant RSK1b (unknown origin) assessed as stabilization by measuring change in melting temperature at 10 uM by SYPRO orange dye based differential scanning fluorimetry assay", "conditions": "Homo sapiens"}, "HCT-116 [22]": {"tested_on": "HCT-116", "test": "Cytotoxicity against human HCT-116 cells assessed as decrease in cell viability at 10 uM incubated for 24 hrs by Hoechst-33342 staining high-content imaging analysis", "format": "toxicity, cell-based", "conditions": "hct-116, 24 h"}}, "note": "Active and inactive are the calls of the source. No cut-off for these calls is given here.", "data": [{"smiles": "CNc1ncc2cc(-c3cc(F)ccc3F)c(=O)n(CCCCN)c2n1", "values": [{"measurement": "ΔTm", "setting": "Ephrin type-A receptor 4 [1]", "result": 5.5, "unit": "°C"}, {"measurement": "ΔTm", "setting": "[2]", "result": 0.9, "unit": "°C"}, {"measurement": "inhibition", "setting": "[3]", "result": "Dose-Dependent Effect"}, {"measurement": "Activity", "setting": "SK-OV-3", "result": 50, "unit": "%"}, {"measurement": "IC50", "setting": "Ephrin type-A receptor 4 [4]", "result": 1.6, "unit": "µM"}, {"measurement": "IC50", "setting": "Ephrin type-B receptor 2", "result": 22.6, "unit": "µM"}, {"measurement": "Activity", "setting": "HCT-116 [5]", "result": "Toxic"}, {"measurement": "inhibition", "setting": "[6]", "result": "Active"}, {"measurement": "Activity", "setting": "HCT-116 [7]", "result": "Toxic"}, {"measurement": "inhibition", "setting": "[8]", "result": "Active"}, {"measurement": "ΔTm", "setting": "[9]", "result": 0, "unit": "°C"}, {"measurement": "ΔTm", "setting": "[10]", "result": 5.9, "unit": "°C"}, {"measurement": "IC50", "setting": "Ephrin type-A receptor 2", "result": 2.1, "unit": "µM"}, {"measurement": "ΔTm", "setting": "[11]", "result": 5.6, "unit": "°C"}, {"measurement": "inhibition", "setting": "[12]", "result": "Active"}, {"measurement": "inhibition", "setting": "[13]", "result": "Active"}, {"measurement": "IC50", "setting": "[14]", "result": 23.2, "unit": "µM"}, {"measurement": "ΔTm", "setting": "[15]", "result": 7.3, "unit": "°C"}, {"measurement": "inhibition", "setting": "[16]", "result": "Active"}, {"measurement": "Activity", "setting": "HCT-116 [17]", "result": 30, "unit": "%"}, {"measurement": "ΔTm", "setting": "[18]", "result": 0.9, "unit": "°C"}, {"measurement": "ΔTm", "setting": "[19]", "result": 1.5, "unit": "°C"}, {"measurement": "ΔTm", "setting": "[20]", "result": 7.4, "unit": "°C"}, {"measurement": "ΔTm", "setting": "[21]", "result": 15.1, "unit": "°C"}, {"measurement": "Activity", "setting": "HCT-116 [22]", "result": "Toxic"}]}]}
